Laboratory results from patent US6800473B1, “Human cathepsin L2 protein, gene encoding said protein and use thereof” (Daiichi Fine Chemical Co., Ltd., priority 1998, dated 2004).
Read-outs that look alike come from different tables or passages of the source. Where a SMILES comes first, the peptide text is derived from it. [ ]: non-standard residue; d: D form. The star is where a group is joined. Sta = CC(C)C[C@H](N)[C@@H](O)CC(=O)O; Isovaleryl = CC(C)CC(=O)*

Target: T1, recombinant cathepsin L2 (Homo sapiens, UniProt O60911)
T1 construct: extra Met before Leu114 (ATG of primer L2-1; own reading of the primer) (N); made in house; host or cells: E. coli BL21 (DE3)
T1 sequence (O60911 114-334): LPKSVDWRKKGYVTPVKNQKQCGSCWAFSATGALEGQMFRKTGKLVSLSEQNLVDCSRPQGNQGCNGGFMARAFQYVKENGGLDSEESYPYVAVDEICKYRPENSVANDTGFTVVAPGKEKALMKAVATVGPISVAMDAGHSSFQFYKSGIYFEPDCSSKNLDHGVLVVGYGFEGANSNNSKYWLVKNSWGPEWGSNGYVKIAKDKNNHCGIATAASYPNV
Type: biochemical
Details: FIG. 3(B)
Protocol: The enzyme activity of purified cathepsin L2 produced in E. coli was measured by using 20 μM Z-Phe-Arg-AMC or Z-Arg-Arg-AMC (Bachem) as the substrate and following the procedure described by Barrett and Kirschke (Barrett, A. J., et al., Methods Enzymol., 80: 535-561, 1981) with minor modifications. Assays were performed at 30° C. in 100 mM sodium acetate buffer (pH 4.5) containing 10 mM dithiothreitol (DTT) and 2 mM EDTA. Substrate hydrolysis was monitored in a Cytofluor 2350 fluorometer (Millipore) at excitation and emission wavelengths of 360 and 460 nm, respectively. For inhibition assays, the reaction mixture containing recombinant cathepsin L2 was preincubated with 20 μM E-64 (Sigma) at 30° C. for 15 min, and the remaining activity for recombinant cathepsin L2 was determined using the fluorogenic substrate Z-Phe-Arg-AMC as described herein previously. As a positive control of enzyme assays, recombinant cathepsin O produced in E. coli (Velasco, G., et al., J. Biol. Chem., 269: 27136-27142, 1994) was used.

[1] = inhibitors of metalloproteinases, serine-proteinases, aspartyl-proteinases, concentration not given

Row | proteolytic activity of cathepsin L2 against Z-Phe-Arg-AMC in the presence of inhibitor (preincubated with 20 μM E-64 at 30° C. for 15 min, 100 mM sodium acetate buffer pH 4.5, 10 mM DTT, 2 mM EDTA) | Structure (SMILES) | proteolytic activity of cathepsin L2 against Z-Phe-Arg-AMC in the presence of inhibitor [1]
1 | – | O=S(=O)(F)Cc1ccccc1 [phenylmethylsulfonyl fluoride] | not abolished
2 | abolished | CC(C)C[C@H](NC(=O)[C@H]1O[C@@H]1C(=O)O)C(=O)NCCCCN=C(N)N (relative stereo) [Clone E-64, trans-epoxysuccinyl-L-leucylamido-(4-guanidino)butane] | –
3 | – | CC(C)CC(=O)N[C@H](C(=O)N[C@H](C(=O)N[C@@H](CC(C)C)[C@@H](O)CC(=O)N[C@@H](C)C(=O)N[C@@H](CC(C)C)[C@@H](O)CC(=O)O)C(C)C)C(C)C [pepstatin A] (Isovaleryl-VV[Sta]A[Sta]-OH) | not abolished
